Results on 20 compounds are retold here after patent publication US8846672B2, “Imidazopyridines as respiratory syncytial virus antiviral agents” (Janssen R&D Ireland, priority 2010, dated 2014).

Bounds are passed on as bounds.

System in one series: not listed separately
The series can be described thus: Toxicity (CC50).
Conditions: not given
Take `O=c1n(Cc2nc3cc(Cl)ccn3c2CCCCO)c2cnccc2n1C1CC1` [Compound P1, 3-((7-chloro-3-(4-hydroxybutyl)imidazo[1,2-a]pyridin-2-yl)methyl)-1-cyclopropyl-1H-imidazo[4,5-c]pyridin-2(3H)-one]: the cytotoxic concentration (CC50) (as a rule, the concentration giving 50% cytotoxicity) was over 9.84 µM.

In turn, `O=c1n(Cc2nc3ccccn3c2CCC2CC2)c2cnccc2n1C1CC1` [Compound P3, 1-cyclopropyl-3-((3-(2-cyclopropylethyl)imidazo-[1,2-a]pyridin-2-yl)methyl)-1H-imidazo[4,5-c]pyridin-2(3H)-one] registered a half-maximal cytotoxic concentration (CC50) of over 9.84 µM.

The subject of another series is RSV. The series can be described thus: RSV inhibitory activity (WT activity). Format: cell-based, respiratory syncytial virus. The conditions noted are these: Table 1, wild-type RSV.
For the compound `COCCCc1c(Cn2c(=O)n(C3CC3)c3ccncc32)nc2cc(Cl)ccn12` [Compound P2], the response was half-maximal at 0.0038 µM (EC50).

Turning to `O=c1n(Cc2nc3ccccn3c2CCCCO)c2cnccc2n1C1CC1` [Compound P5], the midpoint of the response, the EC50, lay at 0.0218 µM.

As for `COCC#Cc1c(Cn2c(=O)n(C3CC3)c3ccncc32)nc2cc(Cl)ccn12` [Compound P6], it took 0.17 µM to reach a half-maximal effect (EC50).

Take `O=c1n(Cc2nc3cc(CCCCO)ccn3c2CCCCO)c2cnccc2n1C1CC1` [Compound P10]: the EC50 – broadly, the concentration at which the effect is half-maximal – was over 9.84 µM.

In the case of `CC(C)CC#Cc1c(Cn2c(=O)n(C(C)C)c3ccccc32)nc2ccccn12` [Compound P11], the EC50 is 11.3 µM.

`CC(C)n1c(=O)n(Cc2cn3ccccc3n2)c2ccccc21` [Compound P12]: a half-maximal response (EC50) required 16.1 µM. The EC50 values of the last two compounds are within 1.5-fold of each other.

For `O=c1n(Cc2cn3ccccc3n2)c2cnccc2n1C1CC1` [Compound P13], the half-maximal effective concentration (EC50) is 51.5 µM.

In the case of `O=c1n(Cc2cn3ccncc3n2)c2cnccc2n1C1CC1` [Compound P14], the 50% effective concentration (EC50) was over 98.4 µM.

The series is the same for the next values; noted with them: Table 2, wild-type RSV.
`CC(C)(C)C=Cc1c(Cn2c(=O)n(C3CC3)c3ccncc32)nc2cnccn12` [Compound P15]: the midpoint of the response, the EC50, lay at 0.318 µM.

`CC(C)(C)CCc1c(Cn2c(=O)n(C3CC3)c3ccncc32)nc2cnccn12` [Compound P16] had a concentration giving a half-maximal response (EC50) of 0.172 µM. Against the preceding compound, the EC50 is about 1.8-fold lower.

For `COC(=O)C=Cc1c(Cn2c(=O)n(C3CC3)c3ccncc32)nc2cc(Cl)ccn12` [Compound P20], the EC50 stood at 0.00297 µM. This EC50 lies about 58-fold lower than the previous one.

`N#CC=Cc1c(Cn2c(=O)n(C3CC3)c3ccncc32)nc2cc(Cl)ccn12` [Compound P21] gave an EC50 of 0.0136 µM. This EC50 is about 4.6-fold higher than that of the compound before.

Regarding `CN(C)C(=O)CCc1c(Cn2c(=O)n(C3CC3)c3ccncc32)nc2cc(Cl)ccn12` [Compound P23], it took 0.00261 µM to reach a half-maximal effect (EC50).

Compound `CN(C)C(=O)CCc1c(Cn2c(=O)n(C3CC3)c3ccncc32)nc2ccccn12` [Compound P25] gave a concentration for a half-maximal effect (EC50) of 0.0153 µM.

The same series, now with this note: human respiratory syncytial virus; Table 1, wild-type RSV.
Compound `O=c1n(Cc2nc3cc(Cl)ccn3c2CCCCO)c2cnccc2n1C1CC1` [Compound P1, 3-((7-chloro-3-(4-hydroxybutyl)imidazo[1,2-a]pyridin-2-yl)methyl)-1-cyclopropyl-1H-imidazo[4,5-c]pyridin-2(3H)-one] displayed an EC50 of 0.0004 µM.

The compound `O=c1n(Cc2nc3ccccn3c2CCC2CC2)c2cnccc2n1C1CC1` [Compound P3, 1-cyclopropyl-3-((3-(2-cyclopropylethyl)imidazo-[1,2-a]pyridin-2-yl)methyl)-1H-imidazo[4,5-c]pyridin-2(3H)-one] displayed an EC50 of 0.00525 µM.

Still in this series, the particulars now being: human respiratory syncytial virus; Table 2, wild-type RSV.
`O=c1n(Cc2nc3cnccn3c2CCCCO)c2cnccc2n1C1CC1` [Compound P17, 1-cyclopropyl-3-((3-(4-hydroxybutyl)imidazo[1,2-a]pyrazin-2-yl)methyl)-1H-imidazo[4,5-c]pyridin-2(3H)-one]: it took 0.276 µM to reach a half-maximal effect (EC50).

In the case of `O=c1n(Cc2nc3cnccn3c2CCCCF)c2cnccc2n1C1CC1` [Compound P18, 1-cyclopropyl-3-((3-(4-fluorobutyl)imidazo[1,2-a]pyrazin-2-yl)methyl)-1H-imidazo[4,5-c]pyridin-2(3H)-one], the EC50 was 0.544 µM. This EC50 is about 2-fold higher than that of the compound before.

In turn, `O=C(CCc1c(Cn2c(=O)n(C3CC3)c3ccncc32)nc2cc(Cl)ccn12)N1CCOCC1` [Compound P26, 3-((7-chloro-3-(3-morpholino-3-oxopropyl)imidazo[1,2-a]pyridin-2-yl)methyl)-1-cyclopropyl-1H-imidazo[4,5-c]pyridin-2(3H)-one] yielded a half-maximal effective concentration (EC50) of 0.00219 µM.

For `O=C(CCc1c(Cn2c(=O)n(C3CC3)c3ccncc32)nc2ccccn12)N1CCOCC1` [Compound P27, 1-cyclopropyl-3-((3-(3-morpholino-3-oxopropyl)imidazo[1,2-a]pyridin-2-yl)methyl)-1H-imidazo[4,5-c]pyridin-2(3H)-one], the EC50 stood at 0.0558 µM.
